Measurements as given in patent US12240862B2, “Inhibitors of peptidylarginine deiminases” (Gilead Sciences, Inc., priority 2020, dated 2025).

These compounds were tested against T1, human PAD4 (Homo sapiens, UniProt Q9UM07) (assay: In vitro PAD4 BAEE biochemical assay). Details: human PAD4, BAEE substrate; 5 nM PAD4, 2 mM calcium chloride, 3 mM BAEE; geometric mean of multiple experiments.
T1 construct: human PAD4 (NM_012387), A2P663, was PCR amplified; His-SUMO (N, cleaved yes); made in house; host or cells: E. coli BL21(DE3)
T1 sequence (Q9UM07 2-663): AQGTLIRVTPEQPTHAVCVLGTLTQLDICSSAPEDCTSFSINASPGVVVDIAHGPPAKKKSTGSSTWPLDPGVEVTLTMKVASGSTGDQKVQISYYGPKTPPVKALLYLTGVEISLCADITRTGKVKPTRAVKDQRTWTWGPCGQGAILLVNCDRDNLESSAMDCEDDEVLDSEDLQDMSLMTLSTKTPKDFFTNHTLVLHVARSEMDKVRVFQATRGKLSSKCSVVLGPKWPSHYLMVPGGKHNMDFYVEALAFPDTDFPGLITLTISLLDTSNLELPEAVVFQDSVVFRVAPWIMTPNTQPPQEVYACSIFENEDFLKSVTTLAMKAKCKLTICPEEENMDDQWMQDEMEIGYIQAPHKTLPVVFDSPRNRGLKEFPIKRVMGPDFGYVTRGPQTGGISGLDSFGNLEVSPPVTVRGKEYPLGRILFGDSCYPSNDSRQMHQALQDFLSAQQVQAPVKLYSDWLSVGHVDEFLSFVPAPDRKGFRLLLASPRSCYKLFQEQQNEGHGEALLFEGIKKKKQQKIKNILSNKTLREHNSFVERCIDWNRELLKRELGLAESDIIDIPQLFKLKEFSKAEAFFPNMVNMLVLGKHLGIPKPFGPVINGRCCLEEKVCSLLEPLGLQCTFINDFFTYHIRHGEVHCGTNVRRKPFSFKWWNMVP
How it was run: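 Ammonia generated from BAEE serves as the readout, measured by o-phthalaldehyde after EDTA termination. Final conditions: 5 nM human PAD4 (SUMO tag cleaved), 2 mM CaCl2, 3 mM BAEE, pH 7.6 MOPS buffer, 25 °C for 2 h following a 30-min compound preincubation.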

IC50 | Compound
0.108 µM | COc1cc(C(=O)N2[C@H]3CC[C@@H]2[C@H](N)C3)cc2nc(-c3cc4ccc(C(C)CN5CCOCC5)nc4n3CC3CC3)c(C)n12 (stereo partly drawn) [Example 543, [(1~{R},2~{R},4~{S})-2-amino-7-azabicyclo [2.2.1]heptan-7-yl]-[2-[1-(cyclopropylmethyl)-6-(1-morpholin-4-ylpropan-2-yl)pyrrolo[2,3-b]pyridin-2-yl]-5-methoxy-3-methylimidazo [1,2-a]pyridin-7-yl] methanone]
0.361 µM | COc1cc(C(=O)N2[C@H]3CC[C@@H]2[C@H](N)C3)cc2nc(-c3cc4ccc(C5CCCCN5C(=O)N5CCCC5)nc4n3CC3CC3)c(C)n12 (stereo partly drawn) [Example 544, [(1~{R},2~{R},4~{S})-2-amino-7-azabicyclo [2.2.1]heptan-7-yl]-[2-[1-(cyclopropylmethyl)-6-[1-(pyrrolidine-1-carbonyl)piperidin-2-yl]pyrrolo [2,3-b]pyridin-2-yl]-5-methoxy-3-methylimidazo [1,2-a]pyridin-7-yl] methanone]
0.0818 µM | COc1cc(C(=O)N2[C@H]3CC[C@@H]2[C@H](N)C3)cc2nc(-c3cc4ccc(C(C)C(N)=O)nc4n3CC3CC3)c(C)n12 (stereo partly drawn) [Example 545]
0.156 µM | COc1cc(C(=O)N2[C@H]3CC[C@@H]2[C@H](N)C3)cc2nc(-c3cc4ccc(C(C)n5cncn5)nc4n3CC3CC3)c(C)n12 (stereo partly drawn) [Example 546, [(1~{R},2~{R},4~{S})-2-amino-7-azabicyclo [2.2.1]heptan-7-yl]-[2-[1-(cyclopropylmethyl)-6-[1-(1,2,4-triazol-1-yl)ethyl]pyrrolo[2,3-b]pyridin-2-yl]-5-methoxy-3-methylimidazo[1,2-a]pyridin-7-yl]methanone]
0.715 µM | COc1cc(C(=O)N2CCC[C@@H](N)C2)cc2nc(-c3cc4ccc(C(C)n5cc(N)cn5)nc4n3CC3CC3)c(C)n12 (stereo partly drawn) [Example 547, [(3~{R})-3-aminopiperidin-1-yl]-[2-[6-[1-(4-aminopyrazol-1-yl)ethyl]-1-(cyclopropylmethyl)pyrrolo[2,3-b]pyridin-2-yl]-5-methoxy-3-methylimidazo[1,2-a]pyridin-7-yl]methanone]
0.532 µM | COc1cc(C(=O)N2CCC[C@@H](N)C2)cc2nc(-c3cc4ccc(C(C)n5cc(C#N)cn5)nc4n3CC3CC3)c(C)n12 (stereo partly drawn) [Example 548, 1-[1-[2-[7-[(3~{R})-3-aminopiperidine-1-carbonyl]-5-methoxy-3-methylimidazo[1,2-a]pyridin-2-yl]-1-(cyclopropylmethyl)pyrrolo[2,3-b]pyridin-6-yl]ethyl] pyrazole-4-carbonitrile]
3.67 µM | COc1cc(C(=O)N2[C@H]3CC[C@@H]2[C@H](N)C3)cc2nc(-c3cc4ccc(-c5ccccc5C(F)(F)F)nc4n3CC3CC3)c(C)n12 [Example 549, [(1~{R},2~{R},4~{S})-2-amino-7-azabicyclo [2.2.1]heptan-7-yl]-[2-[1-(cyclopropylmethyl)-6-[2-(trifluoromethyl)phenyl]pyrrolo[2,3-b]pyridin-2-yl]-5-methoxy-3-methylimidazo[1,2-a]pyridin-7-yl]methanone]
1.85 µM | COc1cc(C(=O)N2[C@H]3CC[C@@H]2[C@H](N)C3)cc2nc(-c3cc4ccc(-c5ccccc5C)nc4n3CC3CC3)c(C)n12 [Example 550, [(1~{R},2~{R},4~{S})-2-amino-7-azabicyclo [2.2.1]heptan-7-yl]-[2-[1-(cyclopropylmethyl)-6-(2-methylphenyl)pyrrolo [2,3-b]pyridin-2-yl]-5-methoxy-3-methylimidazo [1,2-a]pyridin-7-yl]methanone]
0.511 µM | COc1cc(C(=O)N2[C@H]3CC[C@@H]2[C@H](N)C3)cc2nc(-c3cc4ccc(-c5cccnc5C(F)(F)F)nc4n3CC3CC3)c(C)n12 [Example 551, [(1~{R},2~{R},4~{S})-2-amino-7-azabicyclo [2.2.1]heptan-7-yl]-[2-[1-(cyclopropylmethyl)-6-[2-(trifluoromethyl)pyridin-3-yl]pyrrolo[2,3-b]pyridin-2-yl]-5-methoxy-3-methylimidazo [1,2-a]pyridin-7-yl] methanone]
0.153 µM | CCc1ccc2cc(-c3nc4cc(C(=O)N5[C@H]6CC[C@@H]5[C@H](N)C6)cc(OC)n4c3N)n(CC3CC3)c2n1 [Example 552, [(1~{R},2~{R},4~{S})-2-amino-7-azabicyclo [2.2.1]heptan-7-yl]-[3-amino-2-[1-(cyclopropylmethyl)-6-ethylpyrrolo[2,3-b]pyridin-2-yl]-5-methoxyimidazo [1,2-a]pyridin-7-yl]methanone]
0.757 µM | CCc1ccc2cc(-c3nc4cc(C(=O)N5CCC[C@@H](N)C5)cc(OC)n4c3N)n(CC3CC3)c2n1 [Example 553, [3-amino-2-[1-(cyclopropylmethyl)-6-ethylpyrrolo[2,3-b]pyridin-2-yl]-5-methoxyimidazo [1,2-a]pyridin-7-yl]-[(3~{R})-3-aminopiperidin-1-yl]methanone]
0.081 µM | COc1cc(C(=O)N2[C@H]3CC[C@@H]2[C@H](N)C3)cc2nc(-c3cc4ccc([C@H]5CCNC(=O)C5)nc4n3CC3CC3)c(C)n12 [Example 554, (4~{S})-4-[2-[7-[(1~{R}, 2~{R},4~{S})-2-amino-7-azabicyclo[2.2.1]heptane-7-carbonyl]-5-methoxy-3-methylimidazo [1,2-a]pyridin-2-yl]-1-(cyclopropylmethyl)pyrrolo [2,3-b]pyridin-6-yl]piperidin-2-one]
0.0693 µM | COc1cc(C(=O)N2[C@H]3CC[C@@H]2[C@H](N)C3)cc2nc(-c3cc4ccc([C@@H]5CCNC(=O)C5)nc4n3CC3CC3)c(C)n12 [Example 555, (4~{R})-4-[2-[7-[(1~{R},2~{R},4~{S})-2-amino-7-azabicyclo[2.2.1]heptane-7-carbonyl]-5-methoxy-3-methylimidazo [1,2-a]pyridin-2-yl]-1-(cyclopropylmethyl)pyrrolo [2,3-b]pyridin-6-yl]piperidin-2-one]
0.296 µM | COc1ccc(-c2ccc3cc(-c4nc5cc(C(=O)N6[C@H]7CC[C@@H]6[C@H](N)C7)cc(OC)n5c4C)n(CC4CC4)c3n2)c(C)n1 [Example 556, [(1~{R},2~{R},4~{S})-2-amino-7-azabicyclo [2.2.1]heptan-7-yl]-[2-[1-(cyclopropylmethyl)-6-(6-methoxy-2-methylpyridin-3-yl)pyrrolo[2,3-b]pyridin-2-yl]-5-methoxy-3-methylimidazo[1,2-a]pyridin-7-yl]methanone]
0.0777 µM | COc1cc(C(=O)N2[C@H]3CC[C@@H]2[C@H](N)C3)cc2nc(-c3cc4ccc(C(C)CC#N)nc4n3CC3CC3)c(C)n12 (stereo partly drawn) [Example 557, 3-[2-[7-[(1~{R},2~{R}, 4~{S})-2-amino-7-azabicyclo[2.2.1]heptane-7-carbonyl]-5-methoxy-3-methylimidazo[1,2-a]pyridin-2-yl]-1-(cyclopropylmethyl)pyrrolo [2,3-b]pyridin-6-yl] butanenitrile]
0.22 µM | COc1cc(C(=O)N2[C@H]3CC[C@@H]2[C@H](N)C3)cc2nc(-c3cc4ccc(C5=CC(=O)N(C)CC5)nc4n3CC3CC3)c(C)n12 [Example 558, 4-[2-[7-[(1~{R},2~{R}, 4~{S})-2-amino-7-azabicyclo[2.2.1]heptane-7-carbonyl]-5-methoxy-3-methylimidazo[1,2-a]pyridin-2-yl]-1-(cyclopropylmethyl)pyrrolo [2,3-b]pyridin-6-yl]-1-methyl-2,3-dihydropyridin-6-one]
0.0965 µM | CCOC(=O)CC(C)c1ccc2cc(-c3nc4cc(C(=O)N5[C@H]6CC[C@@H]5[C@H](N)C6)cc(OC)n4c3C)n(CC3CC3)c2n1 (stereo partly drawn) [Example 559, ethyl 3-[2-[7-[(1~{R}, 2~{R},4~{S})-2-amino-7-azabicyclo[2.2.1]heptane-7-carbonyl]-5-methoxy-3-methylimidazo[1,2-a]pyridin-2-yl]-1-(cyclopropylmethyl)pyrrolo[2,3-b]pyridin-6-yl]butanoate]
0.114 µM | COc1cc(C(=O)N2[C@H]3CC[C@@H]2[C@H](N)C3)cc2nc(-c3cc4ccc(C5CCN(C)C(=O)C5)nc4n3CC3CC3)c(C)n12 (stereo partly drawn) [Example 560, 4-[2-[7-[(1~{R},2~{R}, 4~{S})-2-amino-7-azabicyclo[2.2.1]heptane-7-carbonyl]-5-methoxy-3-methylimidazo[1,2-a]pyridin-2-yl]-1-(cyclopropylmethyl)pyrrolo [2,3-b]pyridin-6-yl]-1-methylpiperidin-2-one]
0.193 µM | COc1cc(C(=O)N2[C@H]3CC[C@@H]2[C@H](N)C3)cc2nc(-c3cc4ccc(C5=CC(=O)NCC5)nc4n3CC3CC3)c(C)n12 [Example 561, 4-[2-[7-[(1~{R},2~{R}, 4~{S})-2-amino-7-azabicyclo[2.2.1]heptane-7-carbonyl]-5-methoxy-3-methylimidazo[1,2-a]pyridin-2-yl]-1-(cyclopropylmethyl)pyrrolo[2,3-b]pyridin-6-yl]-2,3-dihydro-1~{H}-pyridin-6-one]
0.0831 µM | COc1cc(C(=O)N2[C@H]3CC[C@@H]2[C@H](N)C3)cc2nc(-c3cc4ccc(C5CCNC(=O)C5)nc4n3CC3CC3)c(C)n12 (stereo partly drawn) [Example 562, 4-[2-[7-[(1~{R},2~{R}, 4~{S})-2-amino-7-azabicyclo[2.2.1]heptane-7-carbonyl]-5-methoxy-3-methylimidazo[1,2-a]pyridin-2-yl]-1-(cyclopropylmethyl)pyrrolo[2,3-b]pyridin-6-yl]piperidin-2-one]
0.332 µM | COc1cc(C(=O)N2[C@H]3CC[C@@H]2[C@H](N)C3)cc2nc(-c3cc4ccc(-c5cncc(F)c5C)nc4n3CC3CC3)c(C)n12 [Example 564, [(1~{R},2~{R},4~{S})-2-amino-7-azabicyclo [2.2.1]heptan-7-yl]-[2-[1-(cyclopropylmethyl)-6-(5-fluoro-4-methylpyridin-3-yl)pyrrolo [2,3-b]pyridin-2-yl]-5-methoxy-3-methylimidazo[1,2-a]pyridin-7-yl]methanone]
